Data set [1] has as its system LS174T. As to the kind of experiment: 96 hour proliferation GI50, LS174T. The following applies: Homo sapiens, read-out: 96 hour GI50.
Data set [2] has as its system COLO205. The data set is described as follows: 96 hour proliferation GI50, COLO205. The following applies: Homo sapiens, COLO 205, 96 h, read-out: 96 hour GI50.
In a further data set the target is T1, CDK19 (Homo sapiens, UniProt Q9BWU1).
T1 construct: purchased Proteros Biostructures GmbH (Germany), assay service
T1 sequence (Q9BWU1 whole entry): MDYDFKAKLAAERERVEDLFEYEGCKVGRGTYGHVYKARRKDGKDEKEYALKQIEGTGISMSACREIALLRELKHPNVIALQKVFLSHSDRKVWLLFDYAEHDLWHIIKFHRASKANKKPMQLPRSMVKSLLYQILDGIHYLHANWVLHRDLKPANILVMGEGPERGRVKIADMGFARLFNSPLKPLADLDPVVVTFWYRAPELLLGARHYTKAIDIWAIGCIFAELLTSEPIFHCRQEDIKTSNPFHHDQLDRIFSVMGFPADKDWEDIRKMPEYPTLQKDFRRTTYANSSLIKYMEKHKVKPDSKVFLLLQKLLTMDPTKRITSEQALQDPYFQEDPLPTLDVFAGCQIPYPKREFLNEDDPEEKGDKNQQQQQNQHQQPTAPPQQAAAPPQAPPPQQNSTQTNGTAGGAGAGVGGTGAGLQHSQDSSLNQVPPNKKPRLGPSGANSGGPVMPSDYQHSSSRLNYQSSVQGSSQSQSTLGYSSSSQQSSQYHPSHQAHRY
T1 sequence (P24863 whole entry partner): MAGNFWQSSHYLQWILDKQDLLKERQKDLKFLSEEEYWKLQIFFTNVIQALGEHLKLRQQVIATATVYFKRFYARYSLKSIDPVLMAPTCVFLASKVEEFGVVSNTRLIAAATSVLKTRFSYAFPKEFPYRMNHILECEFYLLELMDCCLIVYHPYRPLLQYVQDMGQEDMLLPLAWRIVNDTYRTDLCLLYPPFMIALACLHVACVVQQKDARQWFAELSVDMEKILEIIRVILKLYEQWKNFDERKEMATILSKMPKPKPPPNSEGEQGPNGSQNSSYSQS
The data set is described as follows: CDK19 reporter displacement assay. Format: binding. The following applies: mean ± s.d. (at least three) or *± range (two repeats); read-out: CDK19 IC50.

A further data set deals with LS513. The data set is described as follows: 96 hour proliferation GI50, LS513. The following applies: Homo sapiens, LS-513, 96 h, read-out: 96 hour GI50.
The target of the next data set is TRK3B. The data set is described as follows: Off-target kinase IC50, TRK3B. Format: biochemical.
The test system of data set [3] is SW837. As to the kind of experiment: 24 hour TCF/LEF reporter assay, SW837. Type of data set: cell-based. As to conditions: Homo sapiens, 24 h, read-out: 24 hour TCF/LEF Reporter assay IC50; SW837; mean (s.d.), n = 4. (In general: A reporter such as luciferase makes a cellular process visible.)
The subject of data set [4] is SW837. As to the kind of experiment: 96 hour proliferation GI50, SW837. The following applies: Homo sapiens, SW837, 96 h, read-out: 96 hour GI50.
The test system of data set [5] is RKO. As to the kind of experiment: 96 hour proliferation GI50, RKO. The following applies: Homo sapiens, read-out: 96 hour GI50.
A further data set relates to p-STAT1^SER727. As to the kind of experiment: Inhibition of STAT1 SER727 phosphorylation in cells (target-engagement biomarker).
Another data set relates to Nomo-1. The data set is described as follows: Soft agar assay, Nomo-1 AML cell line. The following applies: Homo sapiens. Type of data set: cell-based. The source says:
The most CDK8/19 inhibitor sensitive cell model in the soft agar assays was one of the two acute myeloid leukaemia (AML) cell lines, Nomo-1, included in the cell panel.

The subject of data set [6] is LS174T. The data set is described as follows: 24 hour TCF/LEF reporter assay, LS174T. As to conditions: Homo sapiens, read-out: 24 hour TCF/LEF Reporter assay IC50, mean (s.d.), n = 4. Type of data set: cell-based.
For data set [7], the system named is DLD1. As to the kind of experiment: 24 hour TCF/LEF reporter assay, DLD1. Format: cell-based. The following applies: Homo sapiens, DLD-1, 24 h, read-out: 24 hour TCF/LEF Reporter assay IC50; DLD1; mean (s.d.), n = 4.
The next data set is described as follows: Mouse PK. Format: in vivo. The following applies: 0.2mg/kg i.v.
The test system of data set [8] is LS180. As to the kind of experiment: 24 hour TCF/LEF reporter assay, LS180. Type of data set: cell-based. As to conditions: Homo sapiens, 24 h, read-out: 24 hour TCF/LEF Reporter assay IC50; LS180; mean (s.d.), n = 4.
The test system of data set [9] is PDX soft agar colony cultures. The data set is described as follows: Soft agar clonogenic assay, cells from 89 PDX models. Format: cell-based, human. The following applies: soft agar clonogenic assays; in one-third of PDX cell cultures. From the text: To follow up our standard xenograft experiments, we next tested compound activity in human patient-derived tumor xenograft models (PDXs). Firstly, we determined if our compounds were active in in vitro soft agar clonogenic assays, using cells derived from 89 distinct PDX models from different tissue types. In this assay, colony growth was inhibited, but only by up to 50%, in one-third of PDX cell cultures treated with tool compound 2 (Figure 3A–B). Six of the more sensitive colorectal PDX tumor models were selected for in vivo monotherapy either with the lead compound 3 alone, or combined with a standard of care drug (irinotecan or oxaliplatin). […] Importantly, the combination of 3 with standard of care therapies was only of statistically significant benefit in one colorectal tumor model, CFX 1034 (p<0.001; Figure 3C and Figure 3—figure supplement 1).

Data set [10] relates to RKO. As to the kind of experiment: 24 hour reporter assay, RKO negative control (EEF1A1 promoter-reporter). Type of data set: cell-based. As to conditions: Homo sapiens, read-out: 24 hour TCF/LEF Reporter assay IC50, RKO negative control, WNT-independent EEF1A1 promoter-reporter.
In a further data set the test system is SW948. As to the kind of experiment: 96 hour proliferation GI50, SW948. As to conditions: Homo sapiens, SW948, 96 h, read-out: 96 hour GI50.
Data set [11] relates to LS180. The data set is described as follows: 96 hour proliferation GI50, LS180. The following applies: Homo sapiens, LS180, 96 h, read-out: 96 hour GI50.
In a further data set the test system is HT29. As to the kind of experiment: 96 hour proliferation GI50, HT29. As to conditions: Homo sapiens, HT-29, 96 h, read-out: 96 hour GI50.
The next data set in a line: Dog PK. Type of data set: in vivo.
For data set [12], the system named is DLD1. The data set is described as follows: 96 hour proliferation GI50, DLD1. The following applies: Homo sapiens, DLD-1, 96 h, read-out: 96 hour GI50.
A further data set concerns SW620. The data set is described as follows: 96 hour proliferation GI50, SW620. As to conditions: Homo sapiens, SW-620, 96 h, read-out: 96 hour GI50.
A short description of the next data set: Rat PK. Type of data set: in vivo.
In data set [13] the test system is LS174T. As to the kind of experiment: LS174T basal WNT-pathway luciferase reporter. The following applies: Homo sapiens, LS174T, read-out: LS174T IC50.
Data set [14] deals with COLO205. As to the kind of experiment: 24 hour TCF/LEF reporter assay, COLO205. Format: cell-based. The following applies: Homo sapiens, COLO 205, 24 h, read-out: 24 hour TCF/LEF Reporter assay IC50; COLO205; mean (s.d.), n = 4.
For data set [15], the system named is mouse KS483 osteoprogenitor cells. As to the kind of experiment: Bone formation assay in KS483 osteoprogenitor cells (PINP, calcium). The following applies: 13 d. Type of data set: cell-based. How it is done:
Bone formation assays were conducted by Pharmatest (Finland) in mouse KS483 osteoprogenitor cells cultured for 13 d with LGK974 or 3. The amount of PINP secreted into the culture medium, and calcium deposition, were measured by ELISA (Roche Diagnostics, UK).

Another data set has as its target CDK8 (Homo sapiens, UniProt P49336). The data set is described as follows: CDK8 binding (Lanthascreen binding competition / reporter displacement assay). The following applies: mean ± s.d. (at least three) or *± range (two repeats); read-out: CDK8 IC50.
The target in the next data set is 7dF3. As to the kind of experiment: 7dF3 inducible WNT-pathway luciferase reporter.
Where [16] appears, read: read-out: p-STAT1^SER727 IC50, mean ± s.d. or *± range.
Setting [17] is: read-out: p-STAT1^SER727 IC50; mean ± s.d. or *± range.

Like-named read-outs stand apart in the source and are kept apart here. A value given as a limit tells only on which side of the number the result lay.

In general, GI50 refers to the concentration at which growth is held to half of that of the control. By Vd is commonly meant the apparent volume that relates the amount in the body to the concentration in plasma or blood.

CDK8, sequence (P49336 whole entry): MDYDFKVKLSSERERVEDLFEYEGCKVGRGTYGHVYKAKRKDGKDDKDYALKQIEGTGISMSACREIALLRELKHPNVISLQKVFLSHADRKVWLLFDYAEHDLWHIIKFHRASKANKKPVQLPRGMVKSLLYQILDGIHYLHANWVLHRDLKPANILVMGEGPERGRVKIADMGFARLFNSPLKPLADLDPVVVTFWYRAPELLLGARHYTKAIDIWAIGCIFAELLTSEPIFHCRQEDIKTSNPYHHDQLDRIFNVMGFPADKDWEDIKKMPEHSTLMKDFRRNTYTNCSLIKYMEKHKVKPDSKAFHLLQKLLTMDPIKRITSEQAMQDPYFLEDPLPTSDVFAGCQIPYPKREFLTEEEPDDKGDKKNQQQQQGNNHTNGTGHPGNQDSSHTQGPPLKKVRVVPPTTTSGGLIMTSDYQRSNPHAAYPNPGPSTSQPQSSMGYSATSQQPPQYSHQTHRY
CDK8, sequence (P24863 whole entry partner): as the sequence (P24863 whole entry partner) above

Regarding `CN1c2ccc(-c3cncc(Cl)c3N3CCC4(CC3)CNC(=O)O4)cc2CS1(=O)=O` [CMPD 2], the GI50 in the data set on LS174T [1] is above 30000 nM; in the data set with COLO205 [2], above 30000 nM; with LS513, above 30000 nM; in the data set on SW837 [4] it was above 30000 nM; in the data set with RKO [5], above 30000 nM; with Nomo-1, 11 nM. The GI50 in the data set with SW948, in the data set with LS180 [11], in the data set with HT29, with DLD1 [12] and in the data set on SW620 was above 30000 nM each time. Also, the IC50 at CDK19 stood at 1.6 ± 0.2 nM; against TRK3B it was 82 nM; in the data set on SW837 [3], 6 nM; with p-STAT1^SER727 (setting [16]), 4.8 ± 5.5 nM; in the data set with p-STAT1^SER727 (setting [17]), 4.7 ± 5.5 nM; with LS174T [6], 20 nM. The IC50 with DLD1 [7] was 63 nM; in the data set on LS180 [8], 8 nM; in the data set with RKO [10], above 30000 nM; in the data set on LS174T [13], 10.8 ± 4.2 nM; with COLO205 [14], 8 nM. For the same compound, in “Mouse PK”, the “Mouse PK Cl” value turned out to be 47.7 mL/min/kg. Further, in the data set “Mouse PK”, the “Mouse PK Vd” value is on record as 1.34 L/kg. For the same compound, the “Inhibition of colony growth” value in data set [9] is recorded as “up to 50%”. Besides, the “Dog PK F” value in “Dog PK” (0.2mg/kg i.v. or 0.5mg/kg p.o.) turned out to be 43%. For the same compound, the Vd came out at 1.29 L/kg in the data set “Dog PK” (female, beagle, dog, in vivo, iv, 0.2mg/kg i.v.) and 2.82 L/kg in the data set “Rat PK” (male, Wistar, rat, in vivo, iv, 0.2mg/kg i.v.). Moreover, the clearance in the data set “Dog PK” (female, beagle, dog, in vivo, iv, 0.2mg/kg i.v., read-out: Dog PK Cl (converted)) was 32.2 mL/min/kg; in “Rat PK” (male, Wistar, rat, in vivo, iv, 0.2mg/kg i.v., read-out: Rat PK Cl (converted)), 50 mL/min/kg. In addition, the “Rat PK F” value in “Rat PK” (0.2mg/kg i.v. or 0.5mg/kg p.o.) is on record as 12%.

Regarding `Cc1cc(-c2ncc(CC(=O)Nc3ccc(-c4cnccn4)cn3)cc2C)ccn1` [LGK974, reference compound], in [15], the Calcium deposition result is listed as “reduced deposition of calcium” and the PINP secretion entry is given as “reduced secretion”.

In the case of `N#Cc1ccc2ncnc(NCCc3ccccc3)c2c1` [Senexin A, reference compound], the IC50 on CDK8 was 86 ± 5.3 nM; on CDK19, 111 ± 15.2 nM; with p-STAT1^SER727 (setting [17]), 730 ± 113 nM; on 7dF3 (read-out: 7dF3 IC50, inducible WNT-pathway luciferase reporter, mean ± s.d. or *± range), 340 ± 127 nM.

Take `CN1CCN(C(=O)c2ccc3cc(CCNc4ncnc5ccc(C#N)cc45)ccc3c2)CC1` [Senexin B]: the IC50 was found to be 28.9 ± 3.3 nM on CDK8; 740 ± 14 nM with p-STAT1^SER727 (setting [16]); 160 ± 49 nM with 7dF3 (7dF3, read-out: 7dF3 IC50).

The values above are taken from article PMC5224920, “Assessing the mechanism and therapeutic potential of modulators of the human Mediator complex-associated protein kinases” (eLife, 2016).
